Tested on: SIRT 1
Assay: Western blot analysis of the expression of SIRT 1 in HeLa cells
Format: cell-based, Human
Conditions: for % 3 h increase (SIRT 1 expression compared to control) / % 6 h increase (SIRT 1 expression compared to control) / % 24 h increase (SIRT 1 expression compared to control): HeLa cells; for increase of SIRT 1 expression relative to the other groups: Table 1, especially with respect to resveratrol, reference standard
Description: The synergistic effects of co-administration of two substances on SIRT 1 stimulation, determined as a greater, statistically significant effect than the sum of the effects of the two substances individually administered, were evaluated in cell cultures by repeating the experiment at least 8 times for each single combination, either after a stimulation time of 3, 6 and 24 hours (more than 300 total trials), as described in the following detailed description.
Human Cervical Carcinoma cells (HeLa) were cultured in DMEM supplemented with 10% (v/v) fetal bovine serum, 1% antibiotics (penicillin and streptomycin) and 1% L-glutamine at 37° C. in a humidified air atmosphere with 5% (v/v) CO2.
The cells were grown to a confluence of 80%, were then trypsinized, counted with a Burker chamber and plated (100,000 cells /well). The day of the experiment, the cells were treated with the substances at the different concentrations and left in incubation for 3, 6 and 24 hours. The substances were solubilized in DMSO, used at concentrations not toxic for cells (v/v<0.5%).
At the end of the incubation periods, the cells were washed with PBS (pH 7.4) and collected in a 1.5 ml microtube with 0.130 ml of lysis buffer (RIPA buffer) containing a protease inhibitor cocktail, a phosphatase inhibitor cocktail, PMSF, sodium orthovanadate and sodium pyrophosphate.
They were lysed by three freezing-thawing cycles and then the supernatant were recovered.
A part of the lysate was used to quantified the protein content with the spectrophotometer (Thermo Scientific Multiskan FC, Thermo Scientific), using a commercial kit based on the Bradford assay. The final concentrations are expressed in μg/μl.
The cell lysates (25 μg/μl) were combined with the appropriate amount of 1× SDS sample buffer (0.5 M Tris-HCl pH 6.8, 20% SDS, 10% [vol/vol] glycerol, 5% [vol/vol] β-mercaptoethanol, 0.2% bromophenol blue), heated at 95° C. for 5 min, separated by SDS-PAGE and then transferred to polyvinylidene difluoride membranes (PVDF).
For the electrophoretic separation was used a polyacrylamide gel, composed of two parts, a lower one called “Running gel”, containing acrylamide (acrylic acid amide) to 12% (acrylamide/bis-acrylamide 30%), in which occurs the separation of the proteins, and an upper one, called loading gel or “Stacking gel”, containing acrylamide to 10%, where were built the wells for sample loading.
The electrophoretic run was performed by passing a current at 200V for about 1 hour, or until when the front has not reached the bottom of the gel.
Once running, the proteins were transferred from the gel to a […] membrane (PVDF).
The transfer was performed by passing a voltage of 100V for 1 hour.
The membranes were blocked with 5% (wt/vol) nonfat dry milk in Tris-buffered saline with Tween buffer (T-TBS) (20 mmol/1 Tris-Hcl, pH 7.6, 0.138 mol/l NaCl, and 0.1% Tween 20) for 1 hour under stirring and at room temperature.
The expression of SIRT 1 was analyzed incubating the membranes in the presence of specific primary antibodies and, subsequently, of secondary peroxidase-conjugated antibodies, suitable diluted in 5% BSA in T-TBS. Primary Antibodies were used overnight at 4° C. at the following conditions: anti-SIRT 1, rabbit (1:1000) and anti-β-actine, mouse (1:1000). Secondary antibodies were instead used at this dilution: goat anti-rabbit (1:10000) for SIRT 1 and for β-actin.
During this phase the primary antibody binds to species-specific secondary antibody conjugated to a peroxidase enzyme that will bind, in the next step, a specific substrate (luminol) for the reaction of chemiluminescence.
Later, were performed a series of washes with TBS-Tween under stirring, in order to remove all the unbound secondary antibody.
Bound antibodies were visualized using Chemiluminescence Luminata Crescendo Western HRP Substrate and bands were detected and analyzed by the Kodak Image Station 440CF (Eastman Kodak, Rochester, N.Y., USA).

Compound	% 3 h increase (SIRT 1 expression compared to control) (5 μM)	% 6 h increase (SIRT 1 expression compared to control) (5 μM)	% 24 h increase (SIRT 1 expression compared to control) (5 μM)	% 3 h increase (SIRT 1 expression compared to control) (10 μM)	% 6 h increase (SIRT 1 expression compared to control) (10 μM)	% 24 h increase (SIRT 1 expression compared to control) (10 μM)	increase of SIRT 1 expression relative to the other groups	% 3 h increase (SIRT 1 expression compared to control) (25 μM)	% 6 h increase (SIRT 1 expression compared to control) (25 μM)	% 24 h increase (SIRT 1 expression compared to control) (25 μM)	% 3 h increase (SIRT 1 expression compared to control) (50 μM)	% 6 h increase (SIRT 1 expression compared to control) (50 μM)	% 24 h increase (SIRT 1 expression compared to control) (50 μM)	% 3 h increase (SIRT 1 expression compared to control) (20 μM)	% 6 h increase (SIRT 1 expression compared to control) (20 μM)	% 24 h increase (SIRT 1 expression compared to control) (20 μM)
COc1ccc2cc3[n+](cc2c1OC)CCc1cc2c(cc1-3)OCO2 [Berberine, Berberine Chloride Hydrate]	63%	65%	75%	65%	64%	75%	greater increase than the other groups	–	–	–	–	–	–	–	–	–
COc1cc(/C=C/C(=O)O)ccc1O [Ferulic Acid]	–	–	–	–	–	–	greater increase than the other groups	43%	44%	66%	57%	58%	75%	–	–	–
O.O.O=c1c(O)c(-c2ccc(O)c(O)c2)oc2cc(O)cc(O)c12 [Quercetin, Quercetin Dihydrate]	21%	22%	29%	27%	27%	54%	–	–	–	–	–	–	–	–	–	–
Oc1ccc(C=Cc2cc(O)cc(O)c2)cc1 [Resveratrol, reference compound]	46%	47%	68%	47%	48%	69%	–	–	–	–	–	–	–	–	–	–
OCCc1ccc(O)cc1 [Tyrosol]	–	–	–	53%	62%	68%	greater increase than the other groups	–	–	–	–	–	–	76%	93%	101%
(+)-Catechin	44%	44%	46%	54%	54%	57%	greater increase than the other groups	–	–	–	–	–	–	–	–	–

From patent US20170304280A1, “SYNERGISTIC COMBINATIONS STIMULATING THE EXPRESSION OF SIRTUIN 1” (priority 2014, published 2017)
